Measured values published in ChEMBL document CHEMBL3885861, “Open TG-GATES”.

Species on record: Rattus norvegicus
Test: Open TG-GATES - Regimen: Daily Repeat
Assay type: toxicity, organism-based, Sprague-Dawley
Design: regimen Daily Repeat, gender Male, age 6 weeks
Conditions: in vivo, po, 50 mg/kg, route gavage, dose level Middle; for APTT / Bas / Eos / Fbg / Hb / Ht / Lym / MCH / MCHC / MCV / Mono / Neu / PT / Plat / RBC / Ret / WBC: tissue Blood; for KIDNEY_L / KIDNEY_R / KIDNEY_TOTAL: tissue Kidney; for LIVER: tissue Liver; for A/G / ALP / ALT / AST / BUN / CRE / Ca / Cl / DBIL / GLC / IP / K / LDH / Na / PL / RALB / TBIL / TC / TG / TP / gamma-GTP: tissue Plasma

SMILES: O=c1ccc2ccccc2o1 [COUMARIN]
- TERMINAL_BW (72 h, time 3 day): 194.4 g
- APTT (72 h, time 3 day): 14.9 s
- Bas (72 h, time 3 day): 0%
- Eos (72 h, time 3 day): 1.2%
- Fbg (72 h, time 3 day): 201.2 mg/dL
- Hb (72 h, time 3 day): 13.2 g/dL
- Ht (72 h, time 3 day): 40.2%
- Lym (72 h, time 3 day): 71.6%
- MCH (72 h, time 3 day): 21.3 pg
- MCHC (72 h, time 3 day): 33%
- MCV (72 h, time 3 day): 64.5 fL
- Mono (72 h, time 3 day): 6.2%
- Neu (72 h, time 3 day): 21%
- PT (72 h, time 3 day): 11.4 s
- Plat (72 h, time 3 day): 114.2 x10_4/uL
- RBC (72 h, time 3 day): 623.4 x10_4/ul
- Ret (72 h, time 3 day): 7.4%
- WBC (72 h, time 3 day): 101.6 x10_2/uL
- KIDNEY_L (72 h, time 3 day): 0.9 g
- KIDNEY_R (72 h, time 3 day): 0.9 g
- KIDNEY_TOTAL (72 h, time 3 day): 1.8 g
- LIVER (72 h, time 3 day): 10 g
- A/G (72 h, time 3 day): 1.9
- ALP (72 h, time 3 day): 1143 IU/L
- ALT (72 h, time 3 day): 43.8 IU/L
- AST (72 h, time 3 day): 65.4 IU/L
- BUN (72 h, time 3 day): 14.2 mg/dL
- CRE (72 h, time 3 day): 0.5 mg/dL
- Ca (72 h, time 3 day): 10.9 mg/dL
- Cl (72 h, time 3 day): 106 meq/L
- DBIL (72 h, time 3 day): 0.03 mg/dL
- GLC (72 h, time 3 day): 182.4 mg/dL
- IP (72 h, time 3 day): 7.6 mg/dL
- K (72 h, time 3 day): 5.2 meq/L
- LDH (72 h, time 3 day): 94 IU/L
- Na (72 h, time 3 day): 139.4 meq/L
- PL (72 h, time 3 day): 150.6 mg/dL
- RALB (72 h, time 3 day): 3.7 g/dL
- TBIL (72 h, time 3 day): 0.3 mg/dL
- TC (72 h, time 3 day): 95.4 mg/dL
- TG (72 h, time 3 day): 37 mg/dL
- TP (72 h, time 3 day): 5.7 g/dL
- gamma-GTP (72 h, time 3 day): 1.2 IU/L
- TERMINAL_BW ([…], time 7 day): 221.4 g
- TERMINAL_BW ([…], time 14 day): 270.1 g
- TERMINAL_BW ([…], time 28 day): 361.7 g
- APTT ([…], time 7 day): 16.9 s
- Bas ([…], time 7 day): 0%
- Eos ([…], time 7 day): 1%
- Fbg ([…], time 7 day): 218 mg/dL
- Hb ([…], time 7 day): 13.4 g/dL
- Ht ([…], time 7 day): 39.9%
- Lym ([…], time 7 day): 82.8%
- MCH ([…], time 7 day): 21.3 pg
- MCHC ([…], time 7 day): 33.4%
- MCV ([…], time 7 day): 63.9 fL
- Mono ([…], time 7 day): 3.2%
- Neu ([…], time 7 day): 13.4%
- PT ([…], time 7 day): 11.3 s
- Plat ([…], time 7 day): 120.8 x10_4/uL
- RBC ([…], time 7 day): 625 x10_4/ul
- Ret ([…], time 7 day): 6.2%
- WBC ([…], time 7 day): 135.8 x10_2/uL
- APTT ([…], time 14 day): 17.5 s
- Bas ([…], time 14 day): 0%
- Eos ([…], time 14 day): 0.6%
- Fbg ([…], time 14 day): 249 mg/dL
- Hb ([…], time 14 day): 13.8 g/dL
- Ht ([…], time 14 day): 41.7%
- Lym ([…], time 14 day): 87%
- MCH ([…], time 14 day): 20.1 pg
- MCHC ([…], time 14 day): 33.2%
- MCV ([…], time 14 day): 60.5 fL
- Mono ([…], time 14 day): 3.8%
- Neu ([…], time 14 day): 8.8%
- PT ([…], time 14 day): 11.3 s
- Plat ([…], time 14 day): 120.6 x10_4/uL
- RBC ([…], time 14 day): 689.8 x10_4/ul
- Ret ([…], time 14 day): 4.8%
- WBC ([…], time 14 day): 163.9 x10_2/uL
- APTT ([…], time 28 day): 19 s
- Bas ([…], time 28 day): 0%
- Eos ([…], time 28 day): 1%
- Fbg ([…], time 28 day): 239.2 mg/dL
- Hb ([…], time 28 day): 14.2 g/dL
- Ht ([…], time 28 day): 42.4%
- Lym ([…], time 28 day): 81%
- MCH ([…], time 28 day): 19.1 pg
- MCHC ([…], time 28 day): 33.6%
- MCV ([…], time 28 day): 56.8 fL
- Mono ([…], time 28 day): 4.2%
- Neu ([…], time 28 day): 14.2%
- PT ([…], time 28 day): 11.6 s
- Plat ([…], time 28 day): 109.4 x10_4/uL
- RBC ([…], time 28 day): 745.8 x10_4/ul
- Ret ([…], time 28 day): 3.1%
- WBC ([…], time 28 day): 125.8 x10_2/uL
- KIDNEY_L ([…], time 7 day): 1 g
- KIDNEY_R ([…], time 7 day): 1 g
- KIDNEY_TOTAL ([…], time 7 day): 2.1 g
- KIDNEY_L ([…], time 14 day): 1.2 g
- KIDNEY_R ([…], time 14 day): 1.2 g
- KIDNEY_TOTAL ([…], time 14 day): 2.3 g
- KIDNEY_L ([…], time 28 day): 1.4 g
- KIDNEY_R ([…], time 28 day): 1.4 g
- KIDNEY_TOTAL ([…], time 28 day): 2.7 g
- LIVER ([…], time 7 day): 11.3 g
- LIVER ([…], time 14 day): 14.8 g
- LIVER ([…], time 28 day): 19 g
- A/G ([…], time 7 day): 2
- ALP ([…], time 7 day): 996 IU/L
- ALT ([…], time 7 day): 41 IU/L
- AST ([…], time 7 day): 54.2 IU/L
- BUN ([…], time 7 day): 15 mg/dL
- CRE ([…], time 7 day): 0.6 mg/dL
- Ca ([…], time 7 day): 11 mg/dL
- Cl ([…], time 7 day): 104.8 meq/L
- DBIL ([…], time 7 day): 0.04 mg/dL
- GLC ([…], time 7 day): 193.6 mg/dL
- IP ([…], time 7 day): 7.7 mg/dL
- K ([…], time 7 day): 5 meq/L
- LDH ([…], time 7 day): 98.8 IU/L
- Na ([…], time 7 day): 139 meq/L
- PL ([…], time 7 day): 164.6 mg/dL
- RALB ([…], time 7 day): 3.9 g/dL
- TBIL ([…], time 7 day): 0.3 mg/dL
- TC ([…], time 7 day): 99.6 mg/dL
- TG ([…], time 7 day): 36 mg/dL
- TP ([…], time 7 day): 5.9 g/dL
- gamma-GTP ([…], time 7 day): 1 IU/L
- A/G ([…], time 14 day): 2
- ALP ([…], time 14 day): 739.4 IU/L
- ALT ([…], time 14 day): 34 IU/L
- AST ([…], time 14 day): 53.8 IU/L
- BUN ([…], time 14 day): 19.6 mg/dL
- CRE ([…], time 14 day): 0.5 mg/dL
- Ca ([…], time 14 day): 11.1 mg/dL
- Cl ([…], time 14 day): 105.4 meq/L
- DBIL ([…], time 14 day): 0.068 mg/dL
- GLC ([…], time 14 day): 194 mg/dL
- IP ([…], time 14 day): 6.8 mg/dL
- K ([…], time 14 day): 4.8 meq/L
- LDH ([…], time 14 day): 81.2 IU/L
- Na ([…], time 14 day): 138.6 meq/L
- PL ([…], time 14 day): 212.4 mg/dL
- RALB ([…], time 14 day): 4.2 g/dL
- TBIL ([…], time 14 day): 0.3 mg/dL
- TC ([…], time 14 day): 115.8 mg/dL
- TG ([…], time 14 day): 88.4 mg/dL
- TP ([…], time 14 day): 6.4 g/dL
- gamma-GTP ([…], time 14 day): 1 IU/L
- A/G ([…], time 28 day): 1.7
- ALP ([…], time 28 day): 603 IU/L
- ALT ([…], time 28 day): 41.8 IU/L
- AST ([…], time 28 day): 52 IU/L
- BUN ([…], time 28 day): 21 mg/dL
- CRE ([…], time 28 day): 0.6 mg/dL
- Ca ([…], time 28 day): 11 mg/dL
- Cl ([…], time 28 day): 105.2 meq/L
- DBIL ([…], time 28 day): 0.022 mg/dL
- GLC ([…], time 28 day): 183.4 mg/dL
- IP ([…], time 28 day): 6.4 mg/dL
- K ([…], time 28 day): 4.4 meq/L
- LDH ([…], time 28 day): 66.2 IU/L
- Na ([…], time 28 day): 139.4 meq/L
- PL ([…], time 28 day): 195.6 mg/dL
- RALB ([…], time 28 day): 4.3 g/dL
- TBIL ([…], time 28 day): 0.3 mg/dL
- TC ([…], time 28 day): 99.2 mg/dL
- TG ([…], time 28 day): 104 mg/dL
- TP ([…], time 28 day): 6.9 g/dL
- gamma-GTP ([…], time 28 day): 1.6 IU/L
